We go through two compounds from patent publication US9101631B2, “Combination therapy based on SRC and aurora kinase inhibition for the treatment of cancer” (Georgetown University, priority 2008, dated 2015).

The subject of this test is HCT116 colorectal cancer cells. As to the kind of experiment: In vitro viability-based synergy assay (CellTiter Blue), dasatinib and C1368 alone and in combination. (In general: Resazurin is reduced to fluorescent resorufin, in cell work by metabolically active cells.)

Description: HCT116 cells were plated at 3000 cells/well concentration into 96 well plates. […] Cells were incubated for an additional 72 hours and cellular viability measurements were performed using CellTiter Blue assay (Promega). IC50 values were calculated using XLFit and CI values were calculated using Calcusyn (Biosoft).

As for `Cc1nc(Nc2ncc(C(=O)Nc3c(C)cccc3Cl)s2)cc(N2CCN(CCO)CC2)n1` [dasatinib], the IC50 (Homo sapiens, HCT-116, 72 h, read-out: IC50 value, agent alone) amounted to 600 nM.
As to `O=C(Nc1cccc(Nc2nccc(Nc3cccc(C(F)(F)F)c3)n2)c1)C1CC1` [C1368, Cyclopropanecarboxylic acid {3-[4-(3-trifluoromethyl-phenylamino)-pyrimidin-2-ylamino]-phenyl}-amide], the “IC50 value, agent alone” value (HCT116 cells, 72 hours treatment, single agent) is “undeterminable”.

As a reminder, the IC50 is the midpoint of a concentration-inhibition curve.
